Measurements from US7511077B2, “Diamine calcium channel blockers” (Neuromed Pharmaceuticals Ltd., priority 2005, dated 2009).
Like-named read-outs stand apart in the source and are kept apart here.

Experiments:
[1] = target: T1, rat brain N-type calcium channel subunits (α1B+α2δ+β1b cDNA subunits) (Rattus norvegicus, UniProt Q02294); assay: N-type calcium channel block, whole cell patch clamp in HEK 293 cells; format: cell-based; settings: holding potential −80 mV to +10 mV
T1 construct: expressed in transfected cells; host or cells: HEK 293
T1 sequence (Q02294 whole entry): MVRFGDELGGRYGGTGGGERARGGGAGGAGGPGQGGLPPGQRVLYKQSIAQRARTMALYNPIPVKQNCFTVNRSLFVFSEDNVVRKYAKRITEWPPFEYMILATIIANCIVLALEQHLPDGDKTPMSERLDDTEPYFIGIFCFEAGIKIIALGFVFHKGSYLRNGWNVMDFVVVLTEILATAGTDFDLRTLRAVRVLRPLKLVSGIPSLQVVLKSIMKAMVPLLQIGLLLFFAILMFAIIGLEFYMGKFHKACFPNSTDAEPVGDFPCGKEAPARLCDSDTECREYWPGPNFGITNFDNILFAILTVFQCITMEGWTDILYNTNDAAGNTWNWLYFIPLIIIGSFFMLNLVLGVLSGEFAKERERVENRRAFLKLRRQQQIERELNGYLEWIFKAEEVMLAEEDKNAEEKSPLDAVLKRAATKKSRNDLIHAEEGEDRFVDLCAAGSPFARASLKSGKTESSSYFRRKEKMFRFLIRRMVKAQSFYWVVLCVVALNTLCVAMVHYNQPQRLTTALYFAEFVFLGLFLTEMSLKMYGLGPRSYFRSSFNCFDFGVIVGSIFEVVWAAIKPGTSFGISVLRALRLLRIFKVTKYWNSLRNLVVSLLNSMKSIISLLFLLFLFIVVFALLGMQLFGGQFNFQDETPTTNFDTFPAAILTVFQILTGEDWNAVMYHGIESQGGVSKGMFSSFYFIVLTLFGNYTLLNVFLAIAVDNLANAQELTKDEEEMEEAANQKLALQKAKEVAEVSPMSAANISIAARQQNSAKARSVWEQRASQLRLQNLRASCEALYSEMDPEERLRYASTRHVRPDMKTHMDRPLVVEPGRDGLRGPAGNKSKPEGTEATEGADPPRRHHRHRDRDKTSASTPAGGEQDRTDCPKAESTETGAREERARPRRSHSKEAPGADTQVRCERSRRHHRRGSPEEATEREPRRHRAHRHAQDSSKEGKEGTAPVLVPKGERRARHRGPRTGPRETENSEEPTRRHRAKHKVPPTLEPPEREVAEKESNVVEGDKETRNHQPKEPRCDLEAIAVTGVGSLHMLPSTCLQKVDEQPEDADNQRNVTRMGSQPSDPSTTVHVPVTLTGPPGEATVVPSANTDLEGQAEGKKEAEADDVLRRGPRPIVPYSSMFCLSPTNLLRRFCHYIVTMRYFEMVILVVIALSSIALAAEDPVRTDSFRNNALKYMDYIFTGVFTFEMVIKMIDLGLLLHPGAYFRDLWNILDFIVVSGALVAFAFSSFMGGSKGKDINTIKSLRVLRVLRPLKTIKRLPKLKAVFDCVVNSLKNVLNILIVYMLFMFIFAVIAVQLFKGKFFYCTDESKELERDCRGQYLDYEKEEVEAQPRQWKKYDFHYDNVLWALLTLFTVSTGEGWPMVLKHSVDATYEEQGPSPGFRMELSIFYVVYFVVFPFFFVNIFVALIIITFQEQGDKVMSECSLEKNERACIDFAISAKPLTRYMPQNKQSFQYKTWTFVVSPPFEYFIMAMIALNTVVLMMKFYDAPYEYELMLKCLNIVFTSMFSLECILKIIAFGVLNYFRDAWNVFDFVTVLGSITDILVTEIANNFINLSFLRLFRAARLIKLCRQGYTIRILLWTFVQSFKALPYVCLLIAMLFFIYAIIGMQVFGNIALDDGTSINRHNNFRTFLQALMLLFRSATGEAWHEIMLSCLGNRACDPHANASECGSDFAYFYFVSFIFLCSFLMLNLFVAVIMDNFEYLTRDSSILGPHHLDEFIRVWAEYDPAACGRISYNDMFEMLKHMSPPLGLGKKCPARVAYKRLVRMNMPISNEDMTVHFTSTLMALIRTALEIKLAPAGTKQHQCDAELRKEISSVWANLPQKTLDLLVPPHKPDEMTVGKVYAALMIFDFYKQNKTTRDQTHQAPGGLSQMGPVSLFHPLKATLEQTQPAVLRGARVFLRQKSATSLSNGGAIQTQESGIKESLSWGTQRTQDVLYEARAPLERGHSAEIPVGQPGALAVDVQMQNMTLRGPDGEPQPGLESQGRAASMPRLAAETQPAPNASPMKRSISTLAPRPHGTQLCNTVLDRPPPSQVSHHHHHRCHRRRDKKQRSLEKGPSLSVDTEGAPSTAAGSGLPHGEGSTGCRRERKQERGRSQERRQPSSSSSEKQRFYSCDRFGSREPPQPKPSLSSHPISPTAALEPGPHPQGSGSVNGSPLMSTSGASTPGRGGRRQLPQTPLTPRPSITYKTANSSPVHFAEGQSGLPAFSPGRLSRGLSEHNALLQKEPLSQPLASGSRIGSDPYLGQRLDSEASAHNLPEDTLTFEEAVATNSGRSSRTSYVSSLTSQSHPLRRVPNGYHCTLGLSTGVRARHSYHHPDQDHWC
Protocol: N-type calcium channel blocking activity was assayed in human embryonic kidney cells, HEK 293, stably transfected with the rat brain N-type calcium channel subunits (α1B+α2δ+β1b cDNA subunits). Alternatively, N-type calcium channels (α1B+α2δ+β1b cDNA subunits), L-type channels (α1C+α2δ+β1b cDNA subunits) and P/Q-type channels (α1A+α2δ+β1b cDNA subunits) were transiently expressed in HEK 293 cells. Briefly, cells were cultured in Dulbecco's modified eagle medium (DMEM) supplemented with 10% fetal bovine serum, 200 U/ml penicillin and 0.2 mg/ml streptomycin at 37° C. with 5% CO2. At 85% confluency cells were split with 0.25% trypsin/1 mM EDTA and plated at 10% confluency on glass coverslips. At 12 hours the medium was replaced and the cells transiently transfected using a standard calcium phosphate protocol and the appropriate calcium channel cDNA's. Fresh DMEM was supplied and the cells transferred to 28° C./5% CO2. Cells were incubated for 1 to 2 days prior to whole cell recording.
Whole cell patch clamp experiments were performed using an Axopatch 200B amplifier (Axon Instruments, Burlingame, Calif.) linked to a personal computer equipped with pCLAMP software. The external and internal recording solutions contained, respectively, 5 mM BaCl2, 10 mM MgCl2, 10 mM HEPES, 40 mM TEACl, 10 mM glucose, 87.5 mM CsCl (pH 7.2) and 108 mM CsMS, 4 mM MgCl2, 9 mM EGTA, 9 mM HEPES (pH 7.2). Currents were typically elicited from a holding potential of −80 mV to +10 mV using Clampex software (Axon Instruments). Typically, currents were first elicited with low frequency stimulation (0.067 Hz) and allowed to stabilize prior to application of the compounds. The compounds were then applied during the low frequency pulse trains for two to three minutes to assess tonic block, and subsequently the pulse frequency was increased to 0.2 Hz to assess frequency dependent block. Data were analyzed using Clampfit (Axon Instruments) and SigmaPlot 4.0 (Jandel Scientific).

[2] = target: T2, human α1G T-type channels (Homo sapiens, UniProt O43497); assay: T-type calcium channel block, patch clamp in HEK cell lines; format: cell-based
T2 construct: expressed in transfected cells; host or cells: HEK cell lines
T2 sequence (O43497 whole entry): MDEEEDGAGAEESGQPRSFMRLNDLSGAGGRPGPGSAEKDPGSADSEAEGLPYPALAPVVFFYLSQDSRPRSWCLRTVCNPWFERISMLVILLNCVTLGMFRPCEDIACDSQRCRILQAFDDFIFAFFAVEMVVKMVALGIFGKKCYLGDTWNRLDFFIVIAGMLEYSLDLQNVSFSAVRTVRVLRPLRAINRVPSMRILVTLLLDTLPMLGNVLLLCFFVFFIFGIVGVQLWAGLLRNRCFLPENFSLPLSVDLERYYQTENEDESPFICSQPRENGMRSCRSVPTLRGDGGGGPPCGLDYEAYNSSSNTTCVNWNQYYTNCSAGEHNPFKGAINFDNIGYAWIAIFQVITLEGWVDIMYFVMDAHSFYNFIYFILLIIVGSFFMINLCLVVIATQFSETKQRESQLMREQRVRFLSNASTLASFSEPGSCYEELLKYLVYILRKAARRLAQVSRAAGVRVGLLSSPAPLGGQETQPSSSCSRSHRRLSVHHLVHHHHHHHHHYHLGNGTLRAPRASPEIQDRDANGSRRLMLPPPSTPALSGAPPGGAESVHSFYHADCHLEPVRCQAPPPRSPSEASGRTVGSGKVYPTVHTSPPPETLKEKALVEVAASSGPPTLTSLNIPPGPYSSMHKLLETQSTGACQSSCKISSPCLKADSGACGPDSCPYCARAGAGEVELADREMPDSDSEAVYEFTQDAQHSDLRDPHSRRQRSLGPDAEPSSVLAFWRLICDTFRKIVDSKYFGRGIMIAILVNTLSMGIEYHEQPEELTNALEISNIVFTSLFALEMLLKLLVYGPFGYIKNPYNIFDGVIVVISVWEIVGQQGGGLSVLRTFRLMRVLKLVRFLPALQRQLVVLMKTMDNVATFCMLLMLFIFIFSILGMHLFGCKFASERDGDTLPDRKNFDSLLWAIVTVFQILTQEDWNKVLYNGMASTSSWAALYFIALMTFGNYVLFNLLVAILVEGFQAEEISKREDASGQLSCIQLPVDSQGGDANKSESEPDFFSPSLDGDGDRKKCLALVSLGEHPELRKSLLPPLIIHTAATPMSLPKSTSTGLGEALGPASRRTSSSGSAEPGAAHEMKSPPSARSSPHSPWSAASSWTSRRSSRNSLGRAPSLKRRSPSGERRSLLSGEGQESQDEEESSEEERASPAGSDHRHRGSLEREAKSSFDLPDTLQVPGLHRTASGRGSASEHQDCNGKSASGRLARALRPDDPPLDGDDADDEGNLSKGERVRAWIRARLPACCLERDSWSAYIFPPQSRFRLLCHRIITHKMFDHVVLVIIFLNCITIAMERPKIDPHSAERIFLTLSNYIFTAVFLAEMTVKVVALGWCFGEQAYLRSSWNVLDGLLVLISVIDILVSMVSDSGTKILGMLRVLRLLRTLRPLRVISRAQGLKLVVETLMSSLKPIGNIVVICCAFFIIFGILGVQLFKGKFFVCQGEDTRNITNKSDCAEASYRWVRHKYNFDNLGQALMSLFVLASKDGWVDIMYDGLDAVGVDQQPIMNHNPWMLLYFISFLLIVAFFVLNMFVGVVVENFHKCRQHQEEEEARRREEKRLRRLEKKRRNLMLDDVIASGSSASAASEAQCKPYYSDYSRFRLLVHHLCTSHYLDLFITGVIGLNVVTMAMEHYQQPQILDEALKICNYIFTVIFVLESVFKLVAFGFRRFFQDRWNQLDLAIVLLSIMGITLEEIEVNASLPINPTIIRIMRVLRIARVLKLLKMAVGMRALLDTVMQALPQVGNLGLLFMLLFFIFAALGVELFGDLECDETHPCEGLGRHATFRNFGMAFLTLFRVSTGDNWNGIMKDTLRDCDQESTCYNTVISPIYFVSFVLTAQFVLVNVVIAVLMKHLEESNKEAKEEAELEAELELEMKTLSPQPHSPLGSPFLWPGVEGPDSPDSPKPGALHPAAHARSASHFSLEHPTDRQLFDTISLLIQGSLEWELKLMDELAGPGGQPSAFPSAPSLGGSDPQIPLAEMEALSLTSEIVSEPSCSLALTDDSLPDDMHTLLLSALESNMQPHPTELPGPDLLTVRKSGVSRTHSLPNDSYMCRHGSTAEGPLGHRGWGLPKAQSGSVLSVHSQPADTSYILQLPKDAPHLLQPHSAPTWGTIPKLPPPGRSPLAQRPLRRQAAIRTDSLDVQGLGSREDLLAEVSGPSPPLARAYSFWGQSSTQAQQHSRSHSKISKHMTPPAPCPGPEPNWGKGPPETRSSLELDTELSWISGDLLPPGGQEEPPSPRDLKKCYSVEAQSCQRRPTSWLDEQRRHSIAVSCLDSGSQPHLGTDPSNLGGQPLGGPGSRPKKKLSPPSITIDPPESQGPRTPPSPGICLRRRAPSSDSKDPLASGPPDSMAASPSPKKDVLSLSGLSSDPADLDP
Protocol: Standard patch-clamp techniques were employed to identify blockers of T-type currents. Briefly, previously described HEK cell lines stably expressing human α1G T-type channels were used for all the recordings (passage #: 4-20, 37° C., 5% CO2). To obtain T-type currents, plastic dishes containing semi-confluent cells were positioned on the stage of a ZEISS AXIOVERT S100 microscope after replacing the culture medium with external solution (see below). Whole-cell patches were obtained using pipettes (borosilicate glass with filament, O.D.: 1.5 mm, I.D.: 0.86 mm, 10 cm length), fabricated on a SUTTER P-97 puller with resistance values of ˜5 MΩ (see below for internal solution).
T-type currents were reliably obtained by using two voltage protocols: • (1) “non-inactivating”, and (2) “inactivation”
In the non-inactivating protocol, the holding potential is set at −110 mV and with a pre-pulse at −100 mV for 1 second prior to the test pulse at −40 mV for 50 ms. In the inactivation protocol, the pre-pulse is at approximately −85 mV for 1 second, which inactivates about 15% of the T-type channels.
Test compounds were dissolved in external solution, 0.1-0.01% DMSO. After ˜10 min rest, they were applied by gravity close to the cell using a WPI microfil tubing. The “non-inactivated” pre-pulse was used to examine the resting block of a compound. The “inactivated” protocol was employed to study voltage-dependent block. However, the initial data shown below were mainly obtained using the non-inactivated protocol only. IC50 values are shown for various compounds of the invention in Table 5.

[3] = low frequency stimulation 0.067 Hz (tonic block), read-out: IC50 @ 0.067 Hz
[4] = pulse frequency 0.2 Hz (frequency dependent block), read-out: IC50 @ 0.2 Hz
[5] = non-inactivating protocol, pre-pulse −100 mV (resting block), read-out: IC50 @ −100 mV
[6] = −80 mV (inactivation protocol, voltage-dependent block), read-out: IC50 @ −80 mV

Row | IC50 [1, 3] [µM] | IC50 [1, 4] [µM] | IC50 [2, 5] [µM] | IC50 [2, 6] [µM] | SMILES
1 | 0.23 | 0.19 |  |  | COc1cc(C(=O)NC/C=C\CNC(=O)CCCCC(c2ccc(F)cc2)c2ccc(F)cc2)cc(OC)c1OC [Compound P1, N-{(Z)-4-[6,6-Bis-(4-fluoro-phenyl)-hexanoylamino]-but-2-enyl}-3,4,5-trimethoxy-benzamide]
2 | 0.43 | 0.31 |  |  | COc1c(C(C)(C)C)cc(C(=O)NC/C=C\CNC(=O)CCCCC(c2ccc(F)cc2)c2ccc(F)cc2)cc1C(C)(C)C [Compound P2, N-{(Z)-4-[6,6-Bis-(4-fluoro-phenyl)-hexanoylamino]-but-2-enyl}-3,5-di-tert-butyl-4-methoxy-benzamide]
3 | 0.47 | 0.27 |  |  | CC(C)(C)c1cc(C(=O)NC/C=C\CNC(=O)CCCCC(c2ccc(F)cc2)c2ccc(F)cc2)cc(C(C)(C)C)c1O [Compound P3, N-{(Z)-4-[6,6-Bis-(4-fluoro-phenyl)-hexanoylamino]-but-2-enyl}-3,5-di-tert-butyl-4-hydroxy-benzamide]
4 | 0.097 | 0.054 | 0.196 | 0.056 | CC(C)c1ccc(C(=O)NC/C=C\CNC(=O)CCCCC(c2ccc(F)cc2)c2ccc(F)cc2)cc1 [Compound P7, N-{(Z)-4-[6,6-Bis-(4-fluoro-phenyl)-hexanoylamino]-but-2-enyl}-4-isopropyl-benzamide]
5 | 0.331 | 0.196 | 0.155 | 0.051 | COc1cc(C(=O)NC/C=C/CNC(=O)CCCCC(c2ccc(F)cc2)c2ccc(F)cc2)cc(OC)c1OC [Compound P11, N-{(E)-4-[6,6-Bis-(4-fluoro-phenyl)-hexanoylamino]-but-2-enyl}-3,4,5-trimethoxy-benzamide]
6 | 0.22 | 0.146 | 0.112 | 0.034 | COc1c(C(C)(C)C)cc(C(=O)NC/C=C/CNC(=O)CCCCC(c2ccc(F)cc2)c2ccc(F)cc2)cc1C(C)(C)C [Compound P12, N-{(E)-4-[6,6-Bis-(4-fluoro-phenyl)-hexanoylamino]-but-2-enyl}-3,5-di-tert-butyl-4-methoxy-benzamide]
7 | 0.79 | 0.54 |  |  | CC(C)(C)c1cc(C(=O)NC/C=C/CNC(=O)CCCCC(c2ccc(F)cc2)c2ccc(F)cc2)cc(C(C)(C)C)c1O [Compound P13, N-{(E)-4-[6,6-Bis-(4-fluoro-phenyl)-hexanoylamino]-but-2-enyl}-3,5-di-tert-butyl-4-hydroxy-benzamide]
8 | 0.51 | 0.38 |  |  | CC(C)(C)c1ccc(C(=O)NC/C=C/CNC(=O)CCCCC(c2ccc(F)cc2)c2ccc(F)cc2)cc1 [Compound P14, N-{(E)-4-[6,6-Bis-(4-fluoro-phenyl)-hexanoylamino]-but-2-enyl}-4-tert-butyl-benzamide]
9 | 0.052 | 0.015 | 0.026 | 0.007 | O=C(CCCCC(c1ccc(F)cc1)c1ccc(F)cc1)NC/C=C/CNC(=O)COc1ccc(Cl)cc1 [Compound P16, 6,6-Bis-(4-fluoro-phenyl)-hexanoic acid{(E)-4-[2-(4-chloro-phenoxy)-acetylamino]-but-2-enyl}-amide]
10 | 0.598 | 0.266 | 0.007 | 0.003 | CC(C)c1ccc(C(=O)NC/C=C/CNC(=O)CCCCC(c2ccc(F)cc2)c2ccc(F)cc2)cc1 [Compound P17, N-{(E)-4-[6,6-Bis-(4-fluoro-phenyl)-hexanoylamino]-but-2-enyl}-4-isopropyl-benzamide]
11 | 0.809 | 0.305 | 0.149 | 0.039 | O=C(CCCCC(c1ccc(F)cc1)c1ccc(F)cc1)NC/C=C/CNC(=O)c1ccc(Cl)cc1 [Compound P18, N-{(E)-4-[6,6-Bis-(4-fluoro-phenyl)-hexanoylamino]-but-2-enyl}-4-chloro-benzamide]
12 | 0.182 | 0.132 | 0.022 | 0.009 | Cc1ccc(C(=O)NC/C=C/CNC(=O)CCCCC(c2ccc(F)cc2)c2ccc(F)cc2)cc1 [Compound P19, N-{(E)-4-[6,6-Bis-(4-fluoro-phenyl)-hexanoylamino]-but-2-enyl}-4-methyl-benzamide]
13 | 0.188 | 0.134 | 0.126 | 0.043 | O=C(CCCCC(c1ccc(F)cc1)c1ccc(F)cc1)NC/C=C/CNC(=O)c1ccc(F)cc1 [Compound P20, N-{(E)-4-[6,6-Bis-(4-fluoro-phenyl)-hexanoylamino]-but-2-enyl}-4-fluoro-benzamide]
14 | 0.514 | 0.278 | 0.423 | 0.163 | O=C(CC(c1ccccc1)c1ccccc1)NC/C=C/CN(Cc1ccncc1)Cc1ccncc1 [Compound P21, N-[(E)-4-(Bis-pyridin-4-ylmethyl-amino)-but-2-enyl]-3,3-diphenyl-propionamide]
15 | 0.237 | 0.139 | 0.358 | 0.078 | COc1cc(C(=O)NCC#CCNC(=O)CCCCC(c2ccc(F)cc2)c2ccc(F)cc2)cc(OC)c1OC [Compound P22, N-{4-[6,6-Bis-(4-fluoro-phenyl)-hexanoylamino]-but-2-ynyl}-3,4,5-trimethoxy-benzamide]
16 | 0.77 | 0.76 | 1 | 0.424 | CC(C)c1ccc(C(=O)NCC#CCNC(=O)CCCCC(c2ccc(F)cc2)c2ccc(F)cc2)cc1 [Compound P25, N-{4-[6,6-Bis-(4-fluoro-phenyl)-hexanoylamino]-but-2-ynyl}-4-isopropyl-benzamide]
17 | 0.34 | 0.33 | 0.082 | 0.021 | O=C(CC(c1ccccc1)c1ccccc1)NCC#CCN(Cc1ccncc1)Cc1ccncc1 [Compound P30, N-[4-(Bis-pyridin-4-ylmethyl-amino)-but-2-ynyl]-3,3-diphenyl-propionamide]
18 | 0.42 | 0.42 | 0.094 | 0.027 | O=C(CC(c1ccccc1)c1ccccc1)NCC#CCN(Cc1cccnc1)Cc1cccnc1 [Compound P31, N-[4-(Bis-pyridin-3-ylmethyl-amino)-but-2-ynyl]-3,3-diphenyl-propionamide]
19 | 0.291 | 0.165 | 0.177 | 0.141 | CC(C)(C)c1ccc(C(=O)NCCCCNC(=O)CCCCC(c2ccc(F)cc2)c2ccc(F)cc2)cc1 [Compound P34, N-{4-[6,6-Bis-(4-fluoro-phenyl)-hexanoylamino]-butyl}-4-tert-butyl-benzamide]
20 | 0.039 | 0.01 | 0.063 | 0.029 | O=C(CCCCC(c1ccc(F)cc1)c1ccc(F)cc1)NCCCCNC(=O)COc1ccc(Cl)cc1 [Compound P36, 6,6-Bis-(4-fluoro-phenyl)-hexanoic acid{4-[2-(4-chloro-phenoxy)-acetylamino]-butyl}-amide]
